In ChEMBL document CHEMBL4825711, “Necrostatins regulate apoptosis, necroptosis, and inflammation in cisplatin-induced nephrotoxicity in LLC-PK1 cells” (2021) one finds inhibition, viability and Activity data, which are given here for four compounds.

Molecules are shown by their SMILES. Calls of active or inactive are those of the source. The rule behind the calls is not given here.

Test [1] deals with LLC-PK1. As to the kind of experiment: Inhibition of cisplatin-induced JNK phosphorylation in pig LLC-PK1 cells at 50 uM measured after 24 hrs in presence of cisplatin by western blot analysis. Type of test: cell-based. Particulars: Sus scrofa. (A western blot detects proteins with antibodies after separation by electrophoresis.)
Test [2] concerns LLC-PK1. As to the kind of experiment: Protection against cisplatin-induced nephrotoxicity in pig LLC-PK1 cells assessed as cell viability at 50 uM measured after 24 hrs in presence of cisplatin. The format is functional. Particulars: Sus scrofa, read-out: Activity.
Test [3] concerns LLC-PK1. As to the kind of experiment: Protection against cisplatin-induced nephrotoxicity in pig LLC-PK1 cells assessed as inhibition of apoptosis by measuring decrease in cleaved caspase-3 level at 50 uM measured after 24 hrs in presence of cisplatin by western blot analysis. Particulars: Sus scrofa. Type of test: functional, cell-based.
Test [4] relates to LLC-PK1. As to the kind of experiment: Inhibition of cisplatin-induced ERK phosphorylation in pig LLC-PK1 cells at 50 uM measured after 24 hrs in presence of cisplatin by western blot analysis. Particulars: Sus scrofa. The format is cell-based.
Test [5] relates to LLC-PK1. As to the kind of experiment: Inhibition of cisplatin-induced p38 MAPK phosphorylation in pig LLC-PK1 cells at 50 uM measured after 24 hrs in presence of cisplatin by western blot analysis. The format is cell-based. Particulars: Sus scrofa.
In test [6] the test system is LLC-PK1. Kind of test: Protection against cisplatin-induced nephrotoxicity in pig LLC-PK1 cells assessed as increase in cell viability measured after 24 hrs in presence of cisplatin. The format is functional, cell-based. Particulars: Sus scrofa, dose 3.125-50 µM.
Test [7] deals with LLC-PK1. Kind of test: Protection against cisplatin-induced nephrotoxicity in pig LLC-PK1 cells assessed as inhibition of apoptosis by measuring reduction in green stained cells at 50 uM measured after 24 hrs in presence of cisplatin by Tali image based cytometric analysis. Type of test: functional, cell-based. Particulars: Sus scrofa.
Test [8] deals with LLC-PK1. As to the kind of experiment: Protection against cisplatin-induced nephrotoxicity in pig LLC-PK1 cells assessed as increase in cell viability at 50 to 1000 uM measured after 24 hrs in presence of cisplatin. The format is functional, cell-based. Particulars: Sus scrofa, dose 50-1000 µM.
Test [9] relates to LLC-PK1. As to the kind of experiment: Protection against cisplatin-induced nephrotoxicity in pig LLC-PK1 cells assessed as cell viability at 1000 uM measured after 24 hrs in presence of cisplatin. Type of test: functional. Particulars: Sus scrofa, read-out: Activity.
Test [10] relates to LLC-PK1. Kind of test: Protection against cisplatin-induced nephrotoxicity in pig LLC-PK1 cells assessed as inhibition of apoptosis by measuring red-stained dead cells at 50 uM measured after 24 hrs in presence of cisplatin by Tali image based cytometric analysis. Type of test: functional, cell-based. Particulars: Sus scrofa.

For `COc1ccc([C@H]2[C@H]3CCc4ccc(OC)cc4C3=NN2C(C)=O)cc1`, the inhibition result in test [1], in [4] and in [5] was “Active” each time. Besides, the viability at 50 µM in test [2] is 87.5%. Further, the result in test [3] and in test [7] was Active. The Activity result in test [6] is “Dose-Dependent Effect”.

Take `CC(=O)N[C@@H](CS)C(=O)O` [ACETYLCYSTEINE]: the Activity entry in [8] is “Dose-Dependent Effect”. In addition, the viability at 1000 µM in test [9] was determined as 89.4%.

As to `CN1C(=O)C(Cc2c[nH]c3ccccc23)NC1=S` (stereo not drawn) [NECROSTATIN], the inhibition result in test [1], in [4] and in test [5] was “Active” in each case. The viability at 50 µM in test [2] stood at 90.5%. In addition, the outcome in [3] and in [7] was Active. Also, the result in test [10] was inactive. Besides, the Activity entry in test [6] is “Dose-Dependent Effect”.

Turning to `COc1ccc([C@H]2[C@@H]3CCc4ccc(OC)cc4C3=NN2C(C)=O)cc1`, the inhibition result in test [1], in test [4] and in test [5] was “Active” throughout. Also, in [2], the viability at 50 µM was found to be 84.5%. Further, the result in test [3] and in test [7] was Active.
